Series [1] concerns the target T1, MATE2-K (Homo sapiens, UniProt Q86VL8).
T1 sequence (Q86VL8 whole entry): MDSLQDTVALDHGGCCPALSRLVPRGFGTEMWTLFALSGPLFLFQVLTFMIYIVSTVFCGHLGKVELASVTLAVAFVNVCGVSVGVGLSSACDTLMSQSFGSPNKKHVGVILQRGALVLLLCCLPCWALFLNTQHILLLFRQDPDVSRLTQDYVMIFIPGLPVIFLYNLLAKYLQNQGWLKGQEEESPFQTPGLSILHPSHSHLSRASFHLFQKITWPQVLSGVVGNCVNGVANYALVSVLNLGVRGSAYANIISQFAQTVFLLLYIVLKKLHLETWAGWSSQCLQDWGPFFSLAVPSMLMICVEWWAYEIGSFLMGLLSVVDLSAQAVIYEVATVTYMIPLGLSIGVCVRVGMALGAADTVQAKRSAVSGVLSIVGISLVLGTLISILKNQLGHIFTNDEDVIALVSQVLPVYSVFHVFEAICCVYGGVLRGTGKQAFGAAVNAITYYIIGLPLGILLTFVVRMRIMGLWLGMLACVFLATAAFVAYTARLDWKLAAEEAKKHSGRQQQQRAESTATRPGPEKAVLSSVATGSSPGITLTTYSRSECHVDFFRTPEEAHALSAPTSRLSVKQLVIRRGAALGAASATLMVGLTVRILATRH
Briefly: in vitro.

In series [2] the target is T2, MATE1 (Homo sapiens, UniProt Q96FL8).
T2 sequence (Q96FL8 whole entry): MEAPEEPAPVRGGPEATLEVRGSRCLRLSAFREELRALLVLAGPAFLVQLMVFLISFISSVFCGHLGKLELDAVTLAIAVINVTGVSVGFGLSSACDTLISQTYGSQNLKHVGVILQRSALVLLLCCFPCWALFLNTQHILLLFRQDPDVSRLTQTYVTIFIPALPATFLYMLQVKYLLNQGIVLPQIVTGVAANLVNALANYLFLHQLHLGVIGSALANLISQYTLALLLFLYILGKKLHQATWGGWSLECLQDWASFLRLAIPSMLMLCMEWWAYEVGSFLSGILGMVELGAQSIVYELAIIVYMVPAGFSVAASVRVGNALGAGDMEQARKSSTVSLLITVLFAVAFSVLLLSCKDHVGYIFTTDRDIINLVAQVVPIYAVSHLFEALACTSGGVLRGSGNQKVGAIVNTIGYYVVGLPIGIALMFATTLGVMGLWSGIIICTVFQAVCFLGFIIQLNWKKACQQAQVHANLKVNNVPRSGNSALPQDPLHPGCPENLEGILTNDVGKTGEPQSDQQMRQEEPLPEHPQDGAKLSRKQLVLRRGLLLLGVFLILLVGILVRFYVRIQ
Briefly: in vitro.

The mark [3] stands for this setting: HEK293 cells expressing MATE2-K.

Each structure is given as a SMILES string.

Our source for the uptake ratio values is ChEMBL document CHEMBL6182944, “Substrate Specificity of the Organic Cation Transporters MATE1 and MATE2K and Functional Overlap with OCT1 and OCT2” (J Med Chem, 2025).

For `COc1cccc2c1C(=O)c1c(O)c3c(c(O)c1C2=O)C[C@@](O)(C(C)=O)C[C@@H]3O[C@H]1C[C@H](N)[C@H](O)[C@H](C)O1` [DAUNORUBICIN], the uptake ratio at 1 min, 2.5 µM in series [1] (setting [3]) and in series [2] (HEK293 cells expressing MATE1) was < 2 throughout.

In the case of `Nc1ncn([C@H]2C[C@H](O)[C@@H](CO)O2)c(=O)n1` [DECITABINE], the uptake ratio at 1 min, 2.5 µM in series [1] (setting [3]) and in series [2] (HEK293 cells expressing MATE1) was < 2 throughout.

`COc1cc2c(cc1OC)-c1c(C)c3ccc(OC)c(OC)c3c[n+]1CC2` [DEHYDROCORYDALINE]: the uptake ratio at 1 min, 2.5 µM in series [1] (setting [3]) and in series [2] (HEK293 cells expressing MATE1) was > 2 in each case.

In the case of `CNCCc1ccc(O)c(O)c1` [DEOXIEPINEPHRINE], the uptake ratio at 1 min, 2.5 µM in series [1] (setting [3]) and in series [2] (HEK293 cells expressing MATE1) was > 2 throughout.

Turning to `CC(C)N(CCC(C(N)=O)(c1ccccc1)c1ccccn1)C(C)C` (stereo unspecified) [DISOPYRAMIDE], the uptake ratio at 1 min, 2.5 µM in series [1] (setting [3]) and in series [2] (HEK293 cells expressing MATE1) was < 2 each time.

`CC[N+](C)(C)c1cccc(O)c1` [EDROPHONIUM]: the uptake ratio at 1 min, 2.5 µM in series [1] (setting [3]) and in series [2] (HEK293 cells expressing MATE1) was > 2 each time.

For `COC(=O)CCc1ccc(OCC(O)CNC(C)C)cc1` (stereo unspecified) [ESMOLOL], the uptake ratio at 1 min, 2.5 µM in series [1] (setting [3]) and in series [2] (HEK293 cells expressing MATE1) was < 2 each time.

Turning to `CCNCC(O)c1cccc(O)c1` (stereo unspecified) [ETILEFRINE], the uptake ratio at 1 min, 2.5 µM in series [1] (setting [3]) and in series [2] (HEK293 cells expressing MATE1) was > 2 each time.

As to `O=S(=O)(c1cccc2cnccc12)N1CCCNCC1` [FASUDIL], the uptake ratio at 1 min, 2.5 µM is > 2 in series [1] (setting [3]) and < 2 in series [2] (HEK293 cells expressing MATE1).

On to `CC(C)(C(=O)O)c1ccc(C(O)CCCN2CCC(C(O)(c3ccccc3)c3ccccc3)CC2)cc1` (stereo unspecified) [FEXOFENADINE], for which the uptake ratio at 1 min, 2.5 µM in series [1] (setting [3]) and in series [2] (HEK293 cells expressing MATE1) was < 2 throughout.

Consider `OCCN1CCN(CCCN2c3ccccc3Sc3ccc(C(F)(F)F)cc32)CC1` [FLUPHENAZINE], for which the uptake ratio at 1 min, 2.5 µM in series [1] (setting [3]) and in series [2] (HEK293 cells expressing MATE1) was < 2 throughout.

Turning to `NCCCC(=O)O` [GAMMA-AMINOBUTYRIC ACID], the uptake ratio at 1 min, 2.5 µM in series [1] (setting [3]) and in series [2] (HEK293 cells expressing MATE1) was < 2 each time.

Turning to `Nc1ccn([C@@H]2O[C@H](CO)[C@@H](O)C2(F)F)c(=O)n1` [GEMCITABINE], the uptake ratio at 1 min, 2.5 µM in series [1] (setting [3]) and in series [2] (HEK293 cells expressing MATE1) was < 2 each time.

With `Oc1ccc(CC2NCCc3cc(O)c(O)cc32)cc1` (stereo unspecified) [HIGENAMINE], the uptake ratio at 1 min, 2.5 µM in series [1] (setting [3]) and in series [2] (HEK293 cells expressing MATE1) was > 2 in each case.

For the compound `NCCc1c[nH]cn1` [HISTAMINE], the uptake ratio at 1 min, 2.5 µM in series [1] (hek293) was < 2; in series [2] (hek293), > 2.

On to `CCCCCCCN(CC)CCCC(O)c1ccc(NS(C)(=O)=O)cc1` (stereo unspecified) [IBUTILIDE], for which the uptake ratio at 1 min, 2.5 µM in series [1] (setting [3]) and in series [2] (HEK293 cells expressing MATE1) was < 2 in each case.

With `N=C(N)NCc1cccc(I)c1` [IOBENGUANE], the uptake ratio at 1 min, 2.5 µM in series [1] (setting [3]) and in series [2] (HEK293 cells expressing MATE1) was > 2 each time.

With `CCC(NC(C)C)C(O)c1ccc(O)c(O)c1` (stereo unspecified) [ISOETHARINE], the uptake ratio at 1 min, 2.5 µM in series [1] (setting [3]) and in series [2] (HEK293 cells expressing MATE1) was > 2 in each case.

For the compound `CC(C)NCC(O)c1ccc(O)c(O)c1` (stereo unspecified) [ISOPROTERENOL], the uptake ratio at 1 min, 2.5 µM in series [1] (setting [3]) and in series [2] (HEK293 cells expressing MATE1) was > 2 in each case.

With `O=C(C[S+]([O-])Cc1ccco1)NC/C=C\COc1cc(CN2CCCCC2)ccn1` (stereo unspecified) [LAFUTIDINE], the uptake ratio at 1 min, 2.5 µM in series [1] (setting [3]) and in series [2] (HEK293 cells expressing MATE1) was < 2 throughout.

`C[N+](C)(C)C[C@H](O)CC(=O)[O-]` [LEVOCARNITINE]: the uptake ratio at 1 min, 2.5 µM in series [1] (setting [3]) and in series [2] (HEK293 cells expressing MATE1) was < 2 in each case.

As for `C[N+]1(C)CCCC(OC(=O)C(O)(c2ccccc2)c2ccccc2)C1` (stereo unspecified) [MEPENZOLATE BROMIDE], the uptake ratio at 1 min, 2.5 µM in series [1] (setting [3]) and in series [2] (HEK293 cells expressing MATE1) was > 2 each time.

Turning to `CC(C)NCC(O)c1cc(O)cc(O)c1` (stereo unspecified) [METAPROTERENOL], the uptake ratio at 1 min, 2.5 µM in series [1] (setting [3]) and in series [2] (HEK293 cells expressing MATE1) was > 2 each time.

For `Clc1ccc(COC(Cn2ccnc2)c2ccc(Cl)cc2Cl)c(Cl)c1` (stereo unspecified) [MICONAZOLE], the uptake ratio at 1 min, 2.5 µM in series [1] (setting [3]) and in series [2] (HEK293 cells expressing MATE1) was < 2 throughout.

Regarding `CNC(C)Cc1ccc2c(c1)OCO2` (stereo unspecified) [MIDOMAFETAMINE], the uptake ratio at 1 min, 2.5 µM in series [1] (setting [3]) and in series [2] (HEK293 cells expressing MATE1) was < 2 in each case.

With `Nc1nc(CC(=O)Nc2ccc(CCNC[C@H](O)c3ccccc3)cc2)cs1` [MIRABEGRON], the uptake ratio at 1 min, 2.5 µM in series [1] (setting [3]) and in series [2] (HEK293 cells expressing MATE1) was > 2 throughout.

On to `Cc1ncc(C[n+]2csc(CCOP(=O)(O)O)c2C)c(N)n1` [MONOPHOSPHOTHIAMINE], for which the uptake ratio at 1 min, 2.5 µM in series [1] (setting [3]) and in series [2] (HEK293 cells expressing MATE1) was < 2 each time.

On to `CC(C)(C)NCC(O)COc1cccc2c1CC(O)C(O)C2` (stereo unspecified) [NADOLOL], for which the uptake ratio at 1 min, 2.5 µM in series [1] (setting [3]) and in series [2] (HEK293 cells expressing MATE1) was > 2 throughout.

Take `OC(CNCC(O)C1CCc2cc(F)ccc2O1)C1CCc2cc(F)ccc2O1` (stereo unspecified) [NEBIVOLOL]: the uptake ratio at 1 min, 2.5 µM in series [1] (setting [3]) and in series [2] (HEK293 cells expressing MATE1) was < 2 throughout.

Turning to `O=C(O)c1cccnc1` [NIACIN], the uptake ratio at 1 min, 2.5 µM in series [1] (hek293) and in series [2] (hek293) was < 2 throughout.

Turning to `CNC(=O)c1cccnc1` [NICOTINYL METHYLAMIDE], the uptake ratio at 1 min, 2.5 µM in series [1] (setting [3]) and in series [2] (HEK293 cells expressing MATE1) was > 2 in each case.

For `CNC(=C[N+](=O)[O-])NCCSCc1csc(CN(C)C)n1` [NIZATIDINE], the uptake ratio at 1 min, 2.5 µM in series [1] (setting [3]) and in series [2] (HEK293 cells expressing MATE1) was > 2 each time.

For the compound `NCC(O)c1cccc(O)c1` (stereo unspecified) [NORFENEFRINE], the uptake ratio at 1 min, 2.5 µM was < 2 in series [1] (setting [3]) and > 2 in series [2] (HEK293 cells expressing MATE1).

As to `COc1cc(C(O)CN)ccc1O` (stereo unspecified) [NORMETANEPHRINE], the uptake ratio at 1 min, 2.5 µM in series [1] (setting [3]) and in series [2] (HEK293 cells expressing MATE1) was < 2 in each case.

Regarding `NCC(O)c1ccc(O)cc1` (stereo unspecified) [OCTOPAMINE], the values for the uptake ratio at 1 min, 2.5 µM in series [1] (setting [3]) and in series [2] (HEK293 cells expressing MATE1) were < 2 and > 2, respectively.

Regarding `CC[N+](C)(CC)CCOC(=O)C(O)(c1ccccc1)C1CCCCC1` (stereo unspecified) [OXYPHENONIUM], the uptake ratio at 1 min, 2.5 µM in series [1] (setting [3]) and in series [2] (HEK293 cells expressing MATE1) was > 2 in each case.

As for `CC(C)(CO)[C@@H](O)C(=O)NCCC(=O)O` [PANTOTHENIC ACID], the uptake ratio at 1 min, 2.5 µM in series [1] (setting [3]) and in series [2] (HEK293 cells expressing MATE1) was < 2 each time.

As to `NCCc1ccccc1` [PHENETHYLAMINE], the uptake ratio at 1 min, 2.5 µM in series [1] (setting [3]) and in series [2] (HEK293 cells expressing MATE1) was < 2 throughout.

For `CCC1(c2ccccc2)C(=O)NC(=O)NC1=O` [PHENOBARBITAL], the uptake ratio at 1 min, 2.5 µM in series [1] (setting [3]) and in series [2] (HEK293 cells expressing MATE1) was < 2 in each case.

Take `CC[C@@H]1C(=O)OC[C@@H]1Cc1cncn1C` [PILOCARPINE]: the uptake ratio at 1 min, 2.5 µM in series [1] (setting [3]) and in series [2] (HEK293 cells expressing MATE1) was < 2 each time.

Take `CC(C)NCC(O)COc1cccc2[nH]ccc12` (stereo unspecified) [PINDOLOL]: the uptake ratio at 1 min, 2.5 µM is < 2 in series [1] (setting [3]) and > 2 in series [2] (HEK293 cells expressing MATE1).

Take `NC(=O)C1(N2CCCCC2)CCN(CCCC(=O)c2ccc(F)cc2)CC1` [PIPAMPERONE]: the uptake ratio at 1 min, 2.5 µM in series [1] (setting [3]) and in series [2] (HEK293 cells expressing MATE1) was < 2 each time.

For `CN1CCN(CC(=O)N2c3ccccc3C(=O)Nc3cccnc32)CC1` [PIRENZEPINE], the uptake ratio at 1 min, 2.5 µM in series [1] (setting [3]) is < 2; in series [2] (HEK293 cells expressing MATE1), > 2.
